US4251563A, “Compositions containing N-nitrosamine formation or oxidation inhibitors and the use thereof” (Pfizer Inc., priority 1979, dated 1981)
Values after ≈ are worked out from the molar mass of the structure shown. Values joined by “and” are separate entries in the source; they are usually repeats but may differ in a detail not shown here. Equal entries are not always repeated. Where two headings read alike, the source gives them in different places. Values belong to the compound of their own block, whether it stands above or below them.

How the values were obtained:
[1] = general statement, not tested in Example 7; cited from earlier work
[2] = Nitrosopyrrolidine formation in treated and untreated fried bacon, thermal energy analysis (TEA); conditions: for Level of nitrosopyrrolidine (NPy) detected in fried bacon: duplicate; for Reduction of nitrosopyrrolidine relative to untreated fried bacon: treated vs untreated fried bacon; for Level of reduction of nitrosopyrrolidine compared with tocopherol: vs positive control 500 ppm tocopherol
Description: (§1) Several base pickle solutions were prepared in tap water using the following proportions of ingredients: 2.0% sodium tripolyphosphate; 2.5% sucrose, 0%, 0.20% or 0.55% sodium erythorbate; 0.12% or 0.20% sodium nitrite; and 17.0% sodium chloride. Each ingredient was added to the water in the order given and completely dissolved before adding the next ingredient. The desired amount of ascorbyl or erythorbyl laurate was added to selected base solutions as follows. A dispersion or ascorbyl or erythorbyl laurate and Tween 20 was prepared by slurrying 2 parts of Tween 20 and 5 parts of ascorbyl or erythorbyl laurate, hydrating the slurry with a small amount of the base pickle solution and vigorously agitating the hydrated slurry for 10 min to break up the large agglomerates that formed. […] The resultant mixture was homogenized 2 times at 1000 psi in a single-stage homogenizer to give the final pickle solution. The pickle solution was chilled to about 40° F. immediately after preparation and used to prepare the bacon on the day of preparation. Duplicate pork bellies of about 10 lbs weight were stitch-pumped using each of the various concentrations of control or laurate treated cooled, agitated pickle solutions. […] The combined bacon slices from each belly were analyzed for dimethylnitrosamine and nitrosopyrrolidine using standard procedures and a TEA analyzer.

[3] = Dimethylnitrosamine formation in treated and untreated fried bacon, thermal energy analysis (TEA); conditions: duplicate
Description: as §1

[4] = Emollient lotion accelerated stability test; conditions: accelerated stability tests of Example 3
Description: (§2) Using an accelerated stability test at 63° C. this hand creme is compared to a similarly prepared hand creme containing no erythorbyl laurate. After one month of storage at 63° C., the color, appearance and odor of both hand cremes are evaluated against freshly prepared control hand creme.
An oil phase consisting of 70 g of mineral oil, 30 g of lanolin, and 30 g of glycerol monostearate and heated to 75° C. is added to a water phase consisting of 15 g triethanolamine, 200 mg of erythorbyl caprate, and 849 ml of water, also at 75° C. After thoroughly mixing the oil and water phases at 75° C., the emulsion is cooled to 45° C. and perfumed. After cooling to room temperature the emulsion is homogenized to give the emollient lotion.
Using the accelerated stability tests of Example 3 the treated emollient lotion is compared to a similarly prepared, untreated emollient lotion.

[5] = Equilibrium oil-water solubility and phase distribution coefficient; format: physicochemical; conditions: for Total Solubility: oil plus water phase; for solubility: vegetable oil/water, stirred overnight; for Total solubility (in words): oil and water
Description: The oil and water layers were separated by centrifugation at 10,000 rpm for 30 min. Any undissolved ester was removed by gravity filtration through fluted filter paper. The oil and water layers were assayed for ester using 0.01N I2 solution.

[6] = Mayonnaise storage test: color, odor and freshness; conditions: three months at room temperature; 200 ppm in the vegetable oil
Description: In an electric beater, 20 g of egg yolks, 1.2 g of dry mustard, 3.0 g of salt, and 10 ml of vinegar are combined and well beaten; 144 g of vegetable oil (such as cottonseed, corn, or sesame) which contains 200 ppm (0.02%) of ascorbyl or erythorbyl laurate is then added with constant whipping, and beating is continued until there is complete emulsification and no free oil remains. An additional 10 ml of vinegar is added and the beating is continued for a few minutes longer until the emulsion is smooth and of a semi-solid consistency. The resultant mayonnaise is packed in jars and capped.
After three months of storage at room temperature, the color, odor and freshness of the treated mayonnaise are evaluated against similarly stored, untreated mayonnaise and against freshly prepared mayonnaise.

[7] = Hand creme accelerated stability test at 63° C., color, appearance and odor by test panel; conditions: one month at 63° C.
Description: (§3) A hand creme is prepared by mixing a water phase at 70° C. with an oil phase at 75° C. The oil phase consists of 2.0 g of isopropyl myristate, 2.0 g of cetyl alcohol, 15.0 g of stearic acid, 2.0 g of lanolin, and 20.0 mg of erythorbyl laurate. The water phase consists of 71.6 ml of deionized water, 3.0 g of glycerol, 3.0 g of 70% sorbitol, and 1.4 g of triethanolamine. After thoroughly mixing the oil and water phases, the emulsion is cooled to 45° C. at which time the appropriate perfumes are added and mixed thoroughly into the emulsion. After cooling the emulsion to room temperature, the resultant hand creme is placed in an opaque glass jar and sealed.
as §2

[8] = Bologna N-nitrosamine analysis by TEA
Description: (§4) In a large mixer there are combined 60 lb of whole carcass beef which has been ground through a 1/4" plate, 40 lb of regular pork trimmings which has been ground through a 3/8" plate, 2 lb 12 oz of salt, 8 oz of sugar, 4 oz of ground white pepper, 1 oz of coriander, 1 oz of mace, 0.85 oz of sodium erythorbate, 0.25 oz of sodium nitrite, and 1.00 oz of erythorbyl laurate. 25 lb of chopped ice is added and the mixture is cycled through a mechanical emulsifier until the desired texture is attained. The finished emulsion is transferred to a casing stuffer and stuffed into a No. 8 by 36 in. fibrous casing. The resultant product is ready for smoking, which will require approximately 8 hrs. The product is placed in a smokehouse at 130° F. with the damper open and cooked for 30 min. The damper is then closed and the temperature is raised 10° F./hr to 170° F. The heating is continued at 170° F. until an internal temperature of 156° F. is reached. The resultant bologna is cold showered with tap water for 35 to 40 min, held at room temperature for 30 min, and placed in a cooler at 36°-40° F. This procedure will produce bolognas of approximately 18 lb with a 15 in. circumference.
The two bolognas may be analyzed for N-nitrosamines using standard procedures and a TEA analyzer.

[9] = Hand creme N-nitrosamine analysis by TEA
Description: as §3
Portions of the hand cremes described above may be analyzed for N-nitrosamines using a Thermal Energy Analyzer (TEA) and standard procedures.

[10] = Bologna storage test: panel comparison of color, odor and flavor; conditions: stored at 36°-40° F. for 1 month
Description: as §4
The treated bologna is sliced, wrapped and stored at 36°-40° F. for 1 month and its color, odor and flavor are compared to a similarly prepared and stored, untreated bologna.

[11] = Corn flakes storage test: rancid and painty taste; conditions: six months at room temperature; 0.005% by weight, aqueous spray
Description: In a cylindrical pressure cooker are placed about 1700 pounds of degermed and debranned, No. 4-5 milled, hybrid yellow corn and 36 gallons of flavoring syrup composed of sugar, malt, salt and water. The mixture is cooked at 18 psi steam pressure for about 11/2 hours to produce a moisture content of about 33%. Uniform translucency of the kernels will indicate an adequate cook. The kernels are crushed and dried to about 21% moisture. The dried, crushed grits are then heat tempered at 180° F. for 16 hours in order to evenly distribute the water content. The cooked, dried grits are flaked using a conventional flake roller and are passed directly to the toasting oven where they are heated at 575° F. for 50 seconds to produce the finished flakes of less than 3% moisture content. As they cool, they are treated with an aqueous spray of B-complex vitamins and 0.005% by weight erythorbyl laurate relative to the final corn flakes weight. The treated, finished flakes are placed in paper boxes with waxed paper liners.
Treated and untreated flakes are stored six months at room temperature and then compared.

[12] = 120 ppm NaNO2, 200 ppm NaEr only (null control)
[13] = 200 ppm NaNO2, 200 ppm NaEr only
[14] = organic solvent or mixture, read-out: Oil Phase Solubility
[15] = read-out: Water Phase Solubility
[16] = 120 ppm NaNO2, 550 ppm NaEr + 500 ppm AL, listed as AL
[17] = 120 ppm NaNO2, 550 ppm NaEr + 500 ppm EL

Compound: tocopherol [reference compound]
- Distribution coefficient (oil/water) (in words) [1]: essentially infinity
- Level of nitrosopyrrolidine (NPy) detected in fried bacon ([2]; 120 ppm NaNO2, 550 ppm NaEr + 500 ppm TOC (positive control)): none detected (Limit of detection is 0.2 ppb)

Compound: Cc1cc(C(C)(C)C)c(O)c(C(C)(C)C)c1 [BHT]
- Distribution coefficient (oil/water) (in words) [1]: essentially infinity
- Water solubility (in words) [1]: water-insoluble

Compound: CC(C)(C)c1cc(O)ccc1O [TBHQ]
- Distribution coefficient (oil/water) (in words) [1]: essentially infinity
- Water solubility (in words) [1]: water-insoluble

Compound: O=C1O[C@H]([C@H](O)CO)C(O)=C1O [NaEr, sodium erythorbate, reference compound]
- Level of nitrosopyrrolidine (NPy) detected in fried bacon [2, 12]: 4.2 ppb and 3.3 ppb
- Level of nitrosopyrrolidine (NPy) detected in fried bacon [2, 13]: 3.6 ppb and 3.9 ppb
- Level of dimethylnitrosamine (DMNA) detected in fried bacon [3, 12]: 1.0 ppb and 1.2 ppb
- Level of dimethylnitrosamine (DMNA) detected in fried bacon ([3]; 120 ppm NaNO2, 550 ppm NaEr only (null control)): trace (Trace means less than 1 ppb)
- Level of dimethylnitrosamine (DMNA) detected in fried bacon [3, 13]: 2.1 ppb and 1.6 ppb

- Degradation relative to untreated emollient lotion [4]: substantially less degradation
- Total Solubility [5]: 4000 ppm
- solubility [5, 14]: 1.5 mg/mL (≈ 4540 µM)
- solubility [5, 15]: 2.5 mg/mL (≈ 7570 µM)
Compound: CCCCCCCCCC(=O)OC[C@@H](O)[C@H]1OC(=O)C(O)=C1O [erythorbyl caprate]

Compound: CCCCCCCCCCCCCCCC(=O)OC[C@H](O)[C@H]1OC(=O)C(O)=C1O [ascorbyl palmitate, reference compound]
- Total solubility (in words) ([5]; Example 7): low total solubility
- Total Solubility [5]: 175 ppm
- solubility [5, 14]: 0.11 mg/mL (≈ 265 µM)
- solubility [5, 15]: 0.065 mg/mL (≈ 157 µM)

- Total Solubility [5]: 390 ppm
- solubility [5, 14]: 0.25 mg/mL (≈ 697 µM)
- solubility [5, 15]: 0.14 mg/mL (≈ 391 µM)
Compound: CCCCCCCCCCCC(=O)OC[C@H](O)[C@H]1OC(=O)C(O)=C1O [ascorbyl laurate]
- Level of nitrosopyrrolidine (NPy) detected in fried bacon [2, 16]: 1.4 ppb and 2.4 ppb
- Reduction of nitrosopyrrolidine relative to untreated fried bacon [2]: approximately four
- Level of reduction of nitrosopyrrolidine compared with tocopherol [2]: about the same
- Level of dimethylnitrosamine (DMNA) detected in fried bacon [3, 16]: 2.7 ppb and 1.7 ppb
- Level of dimethylnitrosamine (DMNA) detected in fried bacon ([3]; 200 ppm NaNO2, 550 ppm NaEr + 500 ppm AL, listed as AL): 1.6 ppb and 2.6 ppb
- Objectionable change in color, odor and freshness of mayonnaise [6]: substantially less objectionable change

- Total solubility (in words) ([5]; Example 7): high total solubility
- Total Solubility [5]: 5400 ppm
- Distribution coefficient (in words) ([5]; oil/water, Example 7): very low distribution coefficient
- solubility [5, 14]: 0.1 mg/mL (≈ 303 µM)
- solubility [5, 15]: 5.3 mg/mL (≈ 16000 µM)
Compound: CCCCCCCCCC(=O)OC[C@H](O)[C@H]1OC(=O)C(O)=C1O [ascorbyl caprate, reference compound]

- Total Solubility [5]: 700 ppm
- solubility [5, 14]: 0.45 mg/mL (≈ 1260 µM)
- solubility [5, 15]: 0.35 mg/mL (≈ 976 µM)
Compound: CCCCCCCCCCCC(=O)OC[C@@H](O)[C@H]1OC(=O)C(O)=C1O [erythorbyl laurate]
- Objectionable change in color, appearance and odor relative to untreated hand creme [7]: substantially less objectionable change
- Level of nitrosopyrrolidine (NPy) detected in fried bacon [2, 17]: trace (Trace means less than 1 ppb)
- Level of nitrosopyrrolidine (NPy) detected in fried bacon ([2]; 200 ppm NaNO2, 550 ppm NaEr + 500 ppm EL): trace (Trace means less than 1 ppb)
- Reduction of nitrosopyrrolidine relative to untreated fried bacon [2]: approximately four
- Level of reduction of nitrosopyrrolidine compared with tocopherol [2]: about the same
- Levels of N-nitrosamines relative to untreated bologna [8]: substantially reduced levels of N-nitrosamines
- Levels of N-nitrosamines relative to untreated hand creme [9]: substantially reduced levels of N-nitrosamines
- Objectionable change in color, odor and flavor relative to untreated bologna [10]: substantially less objectionable change
- Level of dimethylnitrosamine (DMNA) detected in fried bacon ([3]; 120 ppm NaNO2, 550 ppm NaEr + 250 ppm EL, listed as EL): 1.2 ppb and 1.7 ppb
- Level of dimethylnitrosamine (DMNA) detected in fried bacon [3, 17]: trace (Trace means less than 1 ppb)
- Level of dimethylnitrosamine (DMNA) detected in fried bacon ([3]; 120 ppm NaNO2, 995 ppm EL, no NaEr, listed as EL): 1.2 ppb and 1.0 ppb
- Level of dimethylnitrosamine (DMNA) detected in fried bacon ([3]; 200 ppm NaNO2, 550 ppm NaEr + 250 ppm EL): 2.0 ppb
- Level of dimethylnitrosamine (DMNA) detected in fried bacon ([3]; 200 ppm NaNO2, 550 ppm NaEr + 500 ppm EL, listed as EL): 1.3 ppb and 1.9 ppb
- Level of dimethylnitrosamine (DMNA) detected in fried bacon ([3]; 200 ppm NaNO2, 995 ppm EL, no NaEr, listed as EL): 2.2 ppb and 1.7 ppb
- Rancid and painty taste relative to untreated flakes [11]: insignificant rancid and painty taste
- Objectionable change in color, odor and freshness of mayonnaise [6]: substantially less objectionable change

Compound: COc1ccc(O)c(C(C)(C)C)c1 [BHA]
- Distribution coefficient (oil/water) (in words) [1]: essentially infinity
- Water solubility (in words) [1]: water-insoluble
